Each structure is given as a SMILES string.

One may read the melting point as the temperature of the solid-liquid transition.

The molecule `O=Cc1c[nH]c2cccc(Br)c12` showed a melting point of 179 to 180 °C. To `NC(=O)c1c(F)ccc(Cl)c1F` belongs 135 °C.

`Clc1cccc(Cl)c1-c1nnn[nH]1` yielded a melting point of 203 °C.

`CCCCCCCCCCCCCCCCCCCCBr`: the melting point was determined as 37.5 °C. In turn, `CN(C)c1cccc2c(S(=O)(=O)F)cccc12` yielded a melting point of 52 °C.

In the case of `CC(C)(C)OC(=O)c1cccc(N)c1`, the melting point lay within 81 to 83 °C.

Regarding `CCOc1ccc(N)c(N)c1`, the melting point is 71.5 °C. To `COc1cc2c(cc1OCc1ccccc1)C(C)NCC2` (stereo unspecified) belongs 91 °C. Then `O=C1c2ccccc2-c2ccc3c4c(ccc1c24)-c1ccccc1C3=O`, with 385 °C.

Molecule `CC(C)c1ccc(C(C)C)cc1` registered a melting point of -17 °C.

`CC1CC(OC(=O)C(O)c2ccccc2)CC(C)(C)N1C` (stereo unspecified): the melting point is 113 °C.

For the molecule `CC(C)(C)N(NC(=O)c1ccccc1)C(=O)c1c(F)cccc1Cl`, the melting point amounted to 210 °C. To `O=C(O)c1sc(-c2ccccc2)nc1-c1ccccc1` belongs 212 to 216 °C; to `CNC(=O)Oc1cc(C)c(C)c(C)c1`, 110 °C; to `CC(=O)Oc1cc(-c2ccccc2)cc2ccccc12`, 60 °C. Then `Cc1nc(C2CCN(C(=O)OC(C)(C)C)CC2)sc1CO`, with 150 to 153 °C; and `CC(O)CN(CC(C)O)C(=O)COC(=O)c1ccccc1` (stereo unspecified), with 106 °C. As for `NCCCCCCCCCN`, the melting point is 38 °C. To `Cn1cc(Br)c(C(=O)Cl)n1` belongs 131 to 133 °C; to `CCCCCNc1cc(=O)oc2ccccc12`, 163 °C. Take `CCOC(=O)c1c(SC)nn(S(=O)(=O)c2ccc(OC)cc2)c1N`: the melting point was 143 to 145 °C. For `CCCCCCCCCCCCCN`, the melting point stood at 27.4 °C.

The molecule `CS(=O)(=O)NC(=O)c1cc(Oc2ccc(C(F)(F)F)cc2Cl)ccc1[N+](=O)[O-]` registered a melting point of 220 °C.

`Brc1cccc(-c2cc[nH]n2)c1` showed a melting point of 73 to 74 °C. To `CCCCNC(=O)C(c1cc2ccccc2c2ccccc12)N(Cc1ccco1)C(=O)Cc1ccccc1` (stereo unspecified) belongs 185 °C; to `CC(=O)Nc1ccccc1/C=C/c1cc(C)c([N+](=O)[O-])cc1[N+](=O)[O-]`, 252 °C.

The molecule `Cc1cc(C)c(NC(=O)CN(CC(=O)O)CC(=O)O)c(C)c1` showed a melting point of 218 to 221 °C. To `O=C(CCc1ccccc1)NNc1ccccc1` belongs 117 °C; to `Brc1ccc2oc3ccccc3c2c1`, 110 °C. To `Nc1ncc(Cl)cc1[N+](=O)[O-]` belongs 193 °C; to `O=C(O)C=CC(=O)Nc1ccc(I)cc1`, 194 °C; to `Nc1cc(Cl)ccc1S`, 98 °C. To `CCOC(=O)C(OC(=O)c1ccccc1)c1cc(C(OC(=O)c2ccccc2)C(=O)OCC)c([N+](=O)[O-])cc1[N+](=O)[O-]` (stereo unspecified) belongs 133 °C; to `FC(F)(Cl)C(F)(F)Cl`, -94 °C; to `c1ccc(-c2cccc3cccc(-c4ccccc4)c23)cc1`, 147 °C. On to `O=C(O)C12CC3CC(C1)CC(c1ccc([N+](=O)[O-])cc1)(C3)C2`, for which the melting point lay in the range of 197 to 200 °C.

With `CC1(C)CC(NCCCCCCNC2CC(C)(C)NC(C)(C)C2)CC(C)(C)N1`, the melting point was 64 °C. Then `O/N=C(\Cc1ccccc1)c1ccc2ccccc2c1`, with 128 to 130 °C; and `CC1(C)OC2CC(=O)OCC23C1CC(=O)C1(C)C3CCC2(C)C(c3ccoc3)OC(=O)C3OC321` (stereo unspecified), with 298 °C; and `COC(=O)CS`, with -3 °C. Turning to `Cc1nn(C)c(Cl)c1I`, the melting point was 64 to 65 °C. `COC(=O)c1sccc1Cl` showed a melting point of 39 to 40 °C. Then `Cc1nc(-c2cccc(-n3cccc3)c2)sc1C(=O)NN`, with 185 to 186 °C; and `Brc1noc2ncccc12`, with 135 °C; and `O=C(O)CN(CC(=O)O)Cc1cc2c(cc1O)Oc1cc(O)c(CN(CC(=O)O)CC(=O)O)cc1C21OC(=O)c2ccccc21`, with 200 °C. The molecule `Cc1ccc(N=C=O)cc1[N+](=O)[O-]` displayed a melting point of 51 °C.

Regarding `O=[N+]([O-])c1c(O)ccc2ccccc12`, the melting point amounted to 104 °C. To `Clc1cc(Cl)c2c(c1Cl)Oc1ccccc1O2` belongs 128 °C; to `COc1cc2c(cc1OCc1ccccc1)C(CC(C)C)N(Oc1c([N+](=O)[O-])cc([N+](=O)[O-])cc1[N+](=O)[O-])CC2` (stereo unspecified), 173 °C; to `O=S(=O)(N(c1ccccn1)S(=O)(=O)C(F)(F)F)C(F)(F)F`, 39 °C. Then `CC1CCC(C(C)C)C(OC(=O)/C(=C/c2ccccc2)Cc2ccccc2)C1` (stereo unspecified), with 64 to 65 °C; and `OCC1OC(O)C(O)C1O` (stereo unspecified), with 88 to 92 °C. The molecule `CCC(C(=O)NC(=O)NC(C)=O)c1ccccc1` (stereo unspecified) had a melting point of 100 °C.

As for `Nc1cc(F)ccc1O`, the melting point came to 140 °C. Consider `C/C(=N\c1cccc2cccc(N)c12)c1c(O)c2ccccc2n(-c2ccccc2)c1=O`, for which the melting point was over 300 °C.

Take `CCOP(=S)(OCC)SCn1c(=O)oc2cc(Cl)ccc21`: the melting point came out at 47.8 °C.

As to `O=Cc1ccc(-c2ccc(Cl)cc2)o1`, the melting point fell in the range of 128 to 131 °C. Then `O=C(O)/C=C/c1cccc2c(Br)cccc12`, with 269 to 270 °C; and `O=C1NC2CCCCC12` (stereo unspecified), with 48 to 50 °C; and `BrCc1cccc2nonc12`, with 77 to 79 °C. In turn, `OCc1ccc(OC2CCOCC2)cc1` returned a melting point of 81.5 to 82.5 °C.

Molecule `CC1(C)CC(=O)c2cc(-c3ccccc3)n(-c3ccc(F)cc3)c2C1` showed a melting point of 208 to 210 °C. Then `Oc1nccnc1O`, with 300 °C; and `c1cnc2c(ccc3nccnc32)n1`, with 249 to 252 °C. Consider `CC(C)(C)c1ccc(CCO)cc1`, for which the melting point was determined as 33 °C. `COc1ccc(/C=c2\sc3nc4ccccc4n3c2=O)cc1OC` gave a melting point of 220 to 222 °C. To `FC(F)(F)c1ccc(-c2nnn[nH]2)cc1` belongs 226 °C; to `O=[N+]([O-])c1cc(C=NO)ccc1C=NO`, 175 to 176 °C. To `NC(=O)N(CCO)N=Cc1ccc([N+](=O)[O-])o1` belongs 214 °C; to `COC(=O)c1ccccc1OCc1ccccc1`, 47 °C; to `O=C(OCCOC(=O)c1ccccc1)c1ccccc1`, 73.5 °C. Then `Cc1cc2cc(N)ccc2[nH]1`, with 152 to 155 °C; and `CCOC(=O)c1c(-c2ccccc2)csc1NC(=O)c1ccc(Cl)cc1`, with 171 to 172 °C. Turning to `COC(=O)c1ccccc1SC`, the melting point was 65 °C. As to `CCN(CC)C(=S)Cl`, the melting point is 45 to 50 °C.

As to `CC(C)(C)c1cc(CO)cc(C(C)(C)C)c1O`, the melting point is 140 °C.

Values taken from a melting point compilation (Tetko et al.).
